Data on 39 compounds can be found in patent US8987285B2, “Pharmaceutical compositions, dosage forms and new forms of the compound of formula (I), and methods of use thereof” (Portola Pharmaceuticals, Inc., priority 2010, dated 2015).

The conditions of data set [1]: cited from earlier work.
The nature of data set [2]: Surface tension by Kibron Delta-8 tensiometer (microtensiometry). The settings on record: for Surface Active: 24.1 ° C.

Take `CCN(CC)Cc1cc(Nc2ccnc3cc(Cl)ccc23)ccc1O` [Amodiaquin]: in data set [1], the LogP was 4.2 and the “pKa(s) A = acid” value is reported as “A 11.49”.
In the case of `CNCCCN1c2ccccc2CCc2ccccc21` [Desipramine], the “pKa(s) B = Base” value in data set [1] is given as “B 10.08”.
With `Oc1cccc2ccccc12` [Form 1-naphthol, 1-naphthol], in data set [1], the “pKa(s) A = acid” value is on record as “A 9.175”.
For `CN(C)CCCN1c2ccccc2CCc2ccccc21` [Imipramine], the “pKa(s) B = Base” value in data set [1] is “B 9.54”.
In the case of `CNCCC(Oc1ccc(C(F)(F)F)cc1)c1ccccc1` (stereo not drawn) [Fluoxetine], the “pKa(s) B = Base” value in data set [1] was “B 10.09”.
For the compound `CNc1cc2[nH]c(=O)n(-c3ccc(NC(=O)[N-]S(=O)(=O)c4ccc(Cl)s4)cc3)c(=O)c2cc1F.[K+]` [potassium salt of formula (I)], the CMC in data set [2] (pH 6.0 phosphate buffer) is 0.1 mg/mL; in data set [2] (pH 6.5 phosphate buffer), more than 1.7 mg/mL; in data set [2] (pH 7.0 phosphate buffer), more than 2.7 mg/mL; in data set [2] (pH 7.5 phosphate buffer), more than 4.0 mg/mL; in data set [2] (pH 8.0 phosphate buffer), more than 3.5 mg/mL. Further, the “Surface tension at CMC” value amounted to 62 mN/m in data set [2] (pH 6.0 phosphate buffer); 68 mN/m in data set [2] (pH 6.5 phosphate buffer); 65 mN/m in data set [2] (pH 7.0 phosphate buffer); 63 mN/m in data set [2] (pH 7.5 phosphate buffer); 63 mN/m in data set [2] (pH 8.0 phosphate buffer). Further, the “maximum surface pressure change” value in data set [2] (pH6 phosphate buffer) is 11 mN/m. In addition, the “Surface Active” value in data set [2] (pH 6.5 phosphate buffer), in data set [2] (pH 7.0 phosphate buffer), in data set [2] (pH 7.5 phosphate buffer) and in data set [2] (pH 8.0 phosphate buffer) was “Yes” throughout.
With `CN(C)CC/C=C1/c2ccccc2Sc2ccc(Cl)cc21` [Chlorprothixene], in data set [1], the LogP is 5.48 and the “pKa(s) B = Base” value was “B 9.52”.
As for `Cc1ccccc1C(OCCN(C)C)c1ccccc1` (stereo not drawn) [Orphenadrine], in data set [1], the LogP is 3.84 and the “pKa(s) B = Base” value was “B 9.037”.
Take `Nc1ccc(S(=O)(=O)Nc2nccs2)cc1` [Sulfathiazole]: in data set [1], the log partition coefficient (LogP) is 0.07, the “pKa(s) A = acid” value is 7.168 and the “pKa(s) B = Base” value is on record as “B 2.124 A”.
As to `CCn1cc(C(=O)O)c(=O)c2cc(F)c(N3CCNCC3)cc21` [Norfloxacin], in data set [1], the LogP is given as −1.03, the “pKa(s) A = acid” value was “A 6.324 B” and the “pKa(s) B = Base” value was 8.575.
On to `CC1CCc2cc(F)cc3c(=O)c(C(=O)O)cn1c23` (stereo not drawn) [Flumequine], for which, in data set [1], the log partition coefficient (LogP) is listed as 1.72 and the “pKa(s) A = acid” value is given as “A 6.37”.
Regarding `CCOC(=O)c1ccc(N)cc1` [Benzocaine], the “pKa(s) B = Base” value in data set [1] is “B 2.39”.
In the case of `O=C1CN(/N=C/c2ccc([N+](=O)[O-])o2)C(=O)N1` [Nitrofurantoin], in data set [1], the LogP was −0.54 and the “pKa(s) A = acid” value is recorded as “A 7.05”.
Consider `CC(C)(C)NCC(O)COc1cccc2c1CC(O)C(O)C2` (stereo not drawn) [Nadolol], for which the “pKa(s) B = Base” value in data set [1] is on record as “B 9.696”.
Take `Cc1cccc(Nc2ccccc2C(=O)O)c1C` [Mefenamic Acid]: in data set [1], the “pKa(s) A = acid” value is “A 4.221”.
Regarding `NS(=O)(=O)c1cc2c(cc1Cl)N=C(CSCc1ccccc1)NS2(=O)=O` [Benzthiazide], in data set [1], the LogP is recorded as 1.73.
Consider `Cc1ccc(Cl)c(Nc2ccccc2C(=O)O)c1Cl` [Meclofenamic Acid], for which, in data set [1], the log partition coefficient (LogP) is 5.9 and the “pKa(s) A = acid” value is reported as “A 4.10”.
Consider `O=C(O)c1ccc2ccccc2c1` [2-naphthoic acid], for which, in data set [1], the log partition coefficient (LogP) was 3.28 and the “pKa(s) A = acid” value is “A 3.884”.
Consider `O=C(O)c1cccnc1Nc1cccc(C(F)(F)F)c1` [Niflumic Acid], for which, in data set [1], the LogP is 3.88 and the “pKa(s) B = Base” value was 2.26.
With `NS(=O)(=O)c1cc2c(cc1Cl)NC(C(Cl)Cl)NS2(=O)=O` (stereo not drawn) [Trichlormethiazide], in data set [1], the log partition coefficient (LogP) was 0.97.
In the case of `C=CCc1ccccc1OCC(O)CNC(C)C` (stereo not drawn) [Alprenolol], the “pKa(s) B = Base” value in data set [1] is “B 9.477”.
On to `Nc1nc2ncc(CNc3ccc(C(=O)N[C@@H](CCC(=O)O)C(=O)O)cc3)nc2c(=O)[nH]1` [Folic Acid], for which, in data set [1], the LogP is given as 0.2 and the “pKa(s) B = Base” value is on record as 2.33.
Consider `Cc1ccnc(NS(=O)(=O)c2ccc(N)cc2)n1` [Sulfamerazine], for which, in data set [1], the LogP was 0.15, the “pKa(s) A = acid” value is listed as 6.81 and the “pKa(s) B = Base” value is on record as 2.22.
With `NC12CC3CC(CC(C3)C1)C2` [Amantadine], in data set [1], the LogP is 2.41 and the “pKa(s) B = Base” value was “B 10.48”.
In the case of `CC(=O)Nc1ccc(O)cc1` [Paracetamol], the “pKa(s) A = acid” value in data set [1] is listed as “A 9.52”.
With `O=C(O)c1ccccc1Nc1cccc(C(F)(F)F)c1` [Flufenamic Acid], in data set [1], the lipophilicity (LogP) is 5.56 and the “pKa(s) A = acid” value was “A 3.968”.
In the case of `NC(N)=Nc1nc(CSCCC(N)=NS(N)(=O)=O)cs1` [Famotidine], in data set [1], the LogP is given as −0.81, the “pKa(s) A = acid” value is listed as 11.01 and the “pKa(s) B = Base” value is reported as 6.77.
Consider `COc1ccc([C@@H]2Sc3ccccc3N(CCN(C)C)C(=O)[C@@H]2OC(C)=O)cc1` [Diltiazem], for which the LogP in data set [1] is recorded as 2.89.
For the compound `O=C(O)c1cc(/N=N/c2ccc(S(=O)(=O)Nc3ccccn3)cc2)ccc1O` [Sulfasalazine], the lipophilicity (LogP) in data set [1] was 3.61.
Turning to `Clc1ccc(COC(Cn2ccnc2)c2ccc(Cl)cc2Cl)c(Cl)c1` (stereo not drawn) [Miconazole], in data set [1], the “pKa(s) B = Base” value was “B 6.316”.
Turning to `O=C(CCCN1CCC(O)(c2ccc(Cl)cc2)CC1)c1ccc(F)cc1` [Haloperidol], the “pKa(s) B = Base” value in data set [1] is “B 8.42”.
As to `CNCCCC12CCC(c3ccccc31)c1ccccc12` [Maprotiline], in data set [1], the LogP was 4.85 and the “pKa(s) B = Base” value is given as “B 10.33”.
In the case of `CCN(CC)CCNC(=O)c1cc(Cl)c(N)cc1OC` [Metoclopramide], in data set [1], the “pKa(s) B = Base” value is “B 9.24”.
In the case of `CC(C(=O)O)c1ccc(-c2ccccc2)c(F)c1` (stereo not drawn) [Flurbiprofen], the “pKa(s) A = acid” value in data set [1] is listed as “A 4.01”.
As for `CN(C)CCC=C1c2ccccc2CCc2ccccc21` [Amitriptyline], the “pKa(s) B = Base” value in data set [1] was “B 9.3”.
As for `CNCCC=C1c2ccccc2CCc2ccccc21` [Nortriptyline], the “pKa(s) B = Base” value in data set [1] is listed as “B 10.21”.
In the case of `CC(C(=O)O)c1ccc2c(c1)[nH]c1ccc(Cl)cc12` (stereo not drawn) [Carprofen], in data set [1], the log partition coefficient (LogP) is 4.29 and the “pKa(s) A = acid” value is reported as “A 4.247”.
For the compound `NS(=O)(=O)c1cc2c(cc1C(F)(F)F)NC(Cc1ccccc1)NS2(=O)=O` (stereo not drawn) [Bendroflumethiazide], in data set [1], the LogP is reported as 1.95.
For the compound `CC(C)(C)c1ccc(C(O)CCCN2CCC(C(O)(c3ccccc3)c3ccccc3)CC2)cc1` (stereo not drawn) [Terfenadine], in data set [1], the lipophilicity (LogP) was 5.42 and the “pKa(s) B = Base” value is “B 9.25”.
